Values quoted from earlier work in patent US12263173B2, “PLK1 inhibitor in combination with anti-angiogenics for treating metastatic cancer” (CARDIFF ONCOLOGY, INC., priority 2022, dated 2025).
Where two headings read alike, the source gives them in different places. One block for each molecule: values may come before it.

Tests used:
[1] = system: patients with and without prior bevacizumab treatment; details: second line
[2] = system: disseminated model of AML
[3] = system: HT29 human colon adenocarcinoma xenografts; details: in combination with irinotecan
[4] = system: patients with advanced/metastatic solid tumors; details: reversible
PLK1 = PLK1 (Homo sapiens, UniProt P53350)
[5] = system: patients with AML who were treatment naïve yet unsuitable for induction therapy; details: administered intravenously in combination with LDAC
patients with AML = details: in combination with LDAC
[6] = bev naïve (without prior bevacizumab)

Sequence of PLK1 (P53350 whole entry): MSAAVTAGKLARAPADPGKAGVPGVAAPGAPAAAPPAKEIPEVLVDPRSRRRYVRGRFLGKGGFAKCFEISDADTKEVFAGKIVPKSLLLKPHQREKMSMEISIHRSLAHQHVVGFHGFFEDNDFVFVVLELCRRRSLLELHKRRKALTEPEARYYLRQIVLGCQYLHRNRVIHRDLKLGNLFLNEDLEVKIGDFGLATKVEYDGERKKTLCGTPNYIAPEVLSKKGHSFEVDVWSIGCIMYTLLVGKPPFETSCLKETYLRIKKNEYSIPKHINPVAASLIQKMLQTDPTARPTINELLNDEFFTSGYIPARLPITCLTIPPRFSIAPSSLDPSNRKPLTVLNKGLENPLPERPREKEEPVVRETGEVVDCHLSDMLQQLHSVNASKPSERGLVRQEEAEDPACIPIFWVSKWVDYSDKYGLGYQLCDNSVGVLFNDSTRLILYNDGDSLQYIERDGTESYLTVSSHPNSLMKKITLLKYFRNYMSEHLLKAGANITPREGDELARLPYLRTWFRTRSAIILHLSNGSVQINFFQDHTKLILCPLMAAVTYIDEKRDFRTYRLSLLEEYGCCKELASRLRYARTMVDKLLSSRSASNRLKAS

Molecule: bev: anti-angiogenics (angiogenesis inhibitor), Avastin
- mOS [1, 6]: 13.9 months
- mPFS [1, 6]: 6.9 months
- mOS ([1]; prior bev): 12.5 months
- mPFS ([1]; prior bev): 6.7 months

- specificity for PLK1 (PLK1; among a panel of 296 kinases, including other PLK members): high specificity
- potency and specificity for the PLK1 isozyme versus volasertib (PLK1; compared with volasertib (BI6727)): higher degree of potency and specificity
Molecule: CN1CCN(c2ccc(OC(F)(F)F)c(Nc3ncc4c(n3)-c3c(c(C(N)=O)nn3CCO)CC4)c2)CC1 [onvansertib, 1-(2-hydroxyethyl)-8-{[5-(4-methylpiperazin-1-yl)-2-(trifluoromethoxy)phenyl]amino}-4,5-dihydro-1H-pyrazolo[4,3-h]quinazoline-3-carboxamide]
- survival of animals ([2]; in combination therapy with cytarabine): prolonged survival
- effect on cytarabine antitumor activity ([2]; in combination with cytarabine): significantly increased
- tumor regression compared to each agent alone [3]: enhanced tumor regression
- recovery of hematologic toxicities [4]: ≤ 3 weeks
- inhibition of cell proliferation (AML cell lines): nanomolar concentrations
- xenograft tumor growth (xenograft models; well tolerated doses in mice after oral administration): inhibits xenograft tumor growth
- tumor growth (xenograft models; xenograft models of AML): inhibited

Molecule: CC[C@@H]1C(=O)N(C)c2cnc(Nc3ccc(C(=O)N[C@H]4CC[C@H](N5CCN(CC6CC6)CC5)CC4)cc3OC)nc2N1C(C)C [volasertib]
- OS compared with LDAC alone [5]: significant increase in OS
- benefit of the combination (patients with AML): no benefit
